Measurements published in patent US5552267A, “Solution for prolonged organ preservation” (priority 1994, dated 1996).

What was measured:
[1] = test system: cGMP-regulated phosphodiesterases; conditions: cited from earlier work
lung = assay: orthotopic rat left lung transplantation, nitroglycerin series; assay type: in vivo, rat (male Lewis)
[2] = 6 h in EC, NTG 0.1 mg/mL where added

Row | SMILES | interaction with allosteric binding sites [1] | pulmonary artery flushing time (lung; 30 mL at constant pressure during harvest) | recipient survival (lung; 6 h in EC, 30 min, supplements NTG 0.1 mg/mL, hydralazine 0.02 μg/mL) | arterial oxygenation (lung; [2]) | pulmonary arterial flow (lung; [2]) | pulmonary vascular resistance (lung; [2]) | concentration of maximal beneficial effect (lung; range 0.001 to 0.1 mg/mL)
1 | Nc1nc2c(nc(Br)n2[C@@H]2O[C@@H]3COP(=O)(O)O[C@H]3[C@H]2O)c(=O)[nH]1 [8-Br-cGMP, 8-bromoguanosine-3'5' cyclic monophosphate] | does not interact with the allosteric binding sites | – | – | – | – | – | –
2 | O=[N+]([O-])OCC(CO[N+](=O)[O-])O[N+](=O)[O-] [NTG, nitroglycerin] | – | 86.4 ± 4.9 s | 100% | 501±31 mm Hg | 21.4 ± 2.9 mL/min | 1.4±0.1 ×10^3 Woods units | 0.1 mg/mL
